How the values were obtained:
[1] = Solubility in PBS at pH 7.4; assay type: physicochemical; settings: compared to both 1 and 6; result in words
Protocol: Solubility was determined by Pharmaron Inc. and each compound was assessed in duplicate (n=2) by adding 15 μL of compound stock solution (10 mM in DMSO) into a 96-well plate along with 485 μL of buffer followed by shaking at 25° C., 1,100 rpm for 2 h. Wells were filtered and samples (5 μL) were taken followed by dilution with an equal volume of DMSO (5 μL) and 490 μL of aqueous solution. Samples were analyzed by LC-MS/MS.

[2] = test system: A431 cell line (overexpressed EGFR wt); test: CellTiter-Glo viability assay, A431; assay type: cell-based, human
Protocol: (§1) The A431, HCC827, SK-BR-3, ZR-75-30, AU565 and Caco-2 cell lines were obtained from ATCC. The NCI-H1975 cell line was obtained from SIBS. The NCI-H3255 cell line was obtained from CoBioer. Engineered Ba/F3 cell lines were obtained from Crown Bioscience. MCKII-MDR1 cells were obtained from the Netherlands Cancer Institute. HEK293 cells were obtained from Invitrogen. A431 cells were cultured in DMEM (Life Technologies) with 10% FBS. HCC827, NCI-H1975 and AU565 cells were cultured in RPMI1640 (Invitrogen) with 10% FBS. NCI-H3255 cells were cultured in BEGM (Lonza) with 10% FBS. Ba/F3 EGFR-del E746_A750/C797S and Ba/F3 EGFR-L858R/C797S cells were cultured in RPMI (Invitrogen) with 10% FBS. SK-BR-3 cells were cultured in McCoy's 5a (Invitrogen) with 10% FBS. ZR-75-30 cells were cultured in RPMI1640 (Invitrogen) with 20% FBS. BT474 cells were cultured in DMEM (Gibco) with 10% FBS and 10 μg/mL Insulin. Caco-2 and MCKII-MDR1 culture information is given in the permeability studies section. […]
(§2) Viability assays using A431, HCC827, NCI-H1975, NCI-H3255, Ba/F3 EGFR-del E746_A750/C797S, Ba/F3 EGFR-L858R/C797S, AU565, SK-BR-3 and ZR-75-30 cells were performed at Crown BioScience. […] Dose-response curves were generated and used to calculate the IC50 values which were calculated on GraphPad Prism from the non-linear regression equation fitted with a sigmoidal dose response and are presented as the mean±SEM.

[3] = test system: HER2-positive breast cancer cell lines: AU565, SK-BR-3, BT474 and ZR-75-30; test: CellTiter-Glo viability assay, HER2+ breast cancer cell lines; assay type: cell-based, human; settings: AU565, SK-BR-3, BT474, ZR-75-30; result in words
Protocol: as §1, §2

[4] = Oral CNS pharmacokinetics in SD rats; assay type: in vivo; settings: male, rat, brain and plasma, single oral dose 20 mg/kg, read-out: Kp,uu (unbound brain-to-unbound plasma partitioning coefficient) (AUCinf)
Protocol: Animal experiments were performed at Pharmaron Inc. and animal use was approved by Pharmaron's Institutional Animal Care and Use Committee (IACUC) in Pharmaron (Pharmaron IACUC, Protocol #PK-M-07182022, #PK-R-06012022 and #ON-CELL-XEN-06012022) following the guidance of AAALAC. Six- to eight-week-old male SD rats (approximately 200-300 g) obtained from Si Bei Fu Laboratory Animal Technology Co., six- to eight-week-old male CD1 mice (approximately 20-30 g) obtained from Si Bei Fu Laboratory Animal Technology Co., and six- to eight-week-old female BALB/c nude mice (approximately 20-30 g) obtained from Si Bei Fu Laboratory Animal Technology Co., were used in the pharmacokinetic studies. Six- to eight-week-old female BALB/c nude mice (approximately 18-22 g) obtained from Beijing Anikeeper Biotech Co., Ltd were used in the intracranial PDX study. […]
Oral CNS pharmacokinetic assessment of 15 was done by oral gavage (formulation: 1% methylcellulose) followed by blood and brain sampling at 7 time points (0.25, 0.5, 1, 2, 4, 8, 24 h post dose) with n=3 animals per time point (n=21 total). […] Concentrations of 15 in the plasma and brain samples were determined using LC-MS/MS and WinNonlin 8.3 (Phoenix™) was used for pharmacokinetic calculations. […]

COc1cc2ncnc(Nc3cccc(Cl)c3F)c2cc1OCCON1CCN(C)CC1 [Compound 15, N-(3-chloro-2-fluorophenyl)-7-methoxy-6-(2-((4-methylpiperazin-1-yl)oxy)ethoxy)quinazolin-4-amine]
aqueous solubility [1]: markedly improved aqueous solubility
antiproliferative activity ([2]; A431, 72 h, result in words): minimal activity
IC50 ([2]; Homo sapiens, A-431, A431, overexpressed EGFR wt, 72 h, read-out: antiproliferative IC50): 83 nM
antiproliferative activity [3]: moderate antiproliferative activity
Kp,uu (unbound brain-to-unbound plasma partition coefficient) [4]: 0.33
